{"source": "paper PMC6277767", "about": "“Broad and Region-Specific Impacts of the Synthetic Cannabinoid CP 55,940 in Adolescent and Adult Female Mouse Brains” (Frontiers in Molecular Neuroscience, 2018)", "test_system": "CD1 female mouse brain lipidome", "assay": "Brain-region lipid levels (HPLC/MS/MS lipidomics) 2 h after single i.p. 3 mg/kg CP 55,940 vs vehicle", "type": "in vivo", "conditions": "cerebellum", "method": "The Bloomington Institutional Animal Care and Use Committee of Indiana University reviewed and approved the animal procedures. Female mice from the CD1 strain were utilized to match our study examining THC’s effects on the brain lipidome ([Leishman et al., 2018]). Mice were given a single i.p. injection of either 3 mg/kg CP or 1:1:18 cremophor:ethanol:saline vehicle (please refer to the section “3 mg/kg CP Is Relevant for Synthetic Cannabinoid Abuse and Has Stronger Effects on the Female Mouse Brain Lipidome During Adolescence” for a justification of dose and use of female mice). Three different age groups were given injections: PND 35 and PND 50 adolescents, and adult mice (PND 113). At least eight mice in each age group received CP and at least eight received vehicle. Matching the THC study time course ([Leishman et al., 2018]), mice were sacrificed via rapid decapitation 2 h after injection. Brains were immediately removed and flash-frozen in liquid nitrogen, and then stored at -80°C until dissections were performed. Brains were dissected on an ice-cold dissection plate into the following regions: STR, HIPP, CER, THAL, CTX, HYP, MID, and STEM. These abbreviations for these brain areas will be used exclusively when discussing the results generated by these specific dissections. Each dissected area was immediately placed in liquid nitrogen and then stored at -80°C until used for lipid extraction.\nTissue extracts were performed as previously described ([Bradshaw et al., 2006]; [Stuart et al., 2013]; [Raboune et al., 2014]; [Leishman et al., 2016a],[b], [2017], [2018]). First, samples were shock frozen in liquid nitrogen, weighed, and transferred to a centrifuge tube. The mass of the largest sample was multiplied by 50 to determine how many milliliters of HPLC-grade methanol (Fisher, Fair Lawn, NJ, United States) to add. Then, samples were spiked with 500 pmol deuterium-labeled NAGly (d8NAGly; Cayman Chemical, Ann Arbor, MI, United States). Samples were placed on ice in darkness for 2 h then individually homogenized and centrifuged at 19,000 × g for 20 min at 20°C. Supernatants were diluted with HPLC water (purified in house) to make a solution of 75% water, 25% supernatant. Lipids were partially purified on C18 solid phase extraction columns (Agilent, Palo Alto, CA, United States). A series of four elutions with 1.5 mL of 60%, 75%, 85%, and 100% methanol were collected ([Stuart et al., 2013]; [Leishman et al., 2016a],[b], [2018]).\nAs previously described ([Bradshaw et al., 2006]; [Tan et al., 2006]; [Smoum et al., 2010]; [Stuart et al., 2013]; [Tortoriello et al., 2013]; [Raboune et al., 2014]; [Leishman et al., 2016a],[b], [2017], [2018]), samples were analyzed using an Applied Biosystems API 3000 triple quadrupole mass spectrometer with electrospray ionization (Foster City, CA, United States). Using an Agilent XDB-C18 reversed phase analytical column and optimized mobile phase gradients, 20 μL from each elution were chromatographed. Two Shimadzu 10ADvp pumps (Columbia, MD, United States) provided the pressure for gradient elution. Mobile phase A: 20% methanol, 80% water (v/v) and 1 mM ammonium acetate (Sigma, St. Louis, MO, United States). Mobile phase B: 100% methanol, 1 mM ammonium acetate. Every method run began with 0% mobile phase B, reached 100% mobile phase B flowing at 0.2 mL/min, and gradually returned to 0% mobile phase B.\nThis screening library will be referred to as the lipidome when discussing data from this study. HPLC/MS/MS data were analyzed using Analyst software (Applied Biosystems) ([Bradshaw et al., 2006]; [Tan et al., 2006]; [Stuart et al., 2013]; [Tortoriello et al., 2013]; [Raboune et al., 2014]; [Leishman et al., 2016a],[b], [2017], [2018]). Chromatograms (Supplementary Figure 3) were generated by determining the retention time of analytes from the analytical column with a [M-1] or [M+1] parent peak and a fragmentation peak corresponding to the programmed values. […]", "key": {"[1]": {"conditions": "WT adult female mice, 3mg/kg CP 55,940"}}}
{"compound": "CCCCCCC(C)(C)c1ccc([C@@H]2C[C@H](O)CC[C@H]2CCCO)c(O)c1", "note": "[CP 55,940]", "values": [{"measurement": "N-palmitoyl serine level, Mean", "setting": "[1]", "result": "5.77E-12"}, {"measurement": "N-palmitoyl tyrosine level, Mean", "setting": "[1]", "result": "9.82E-13"}, {"measurement": "N-palmitoyl valine level, Mean", "setting": "[1]", "result": "1.08E-13"}, {"measurement": "N-stearoyl GABA level, Mean", "setting": "[1]", "result": "1.12E-11"}, {"measurement": "N-stearoyl alanine level, Mean", "setting": "[1]", "result": "5.69E-12"}, {"measurement": "N-stearoyl ethanolamine level, Mean", "setting": "[1]", "result": "1.6E-11"}, {"measurement": "N-stearoyl glycine level, Mean", "setting": "[1]", "result": "1.62E-12"}, {"measurement": "N-stearoyl leucine level, Mean", "setting": "[1]", "result": "1.18E-12"}, {"measurement": "N-stearoyl methionine level, Mean", "setting": "[1]", "result": "3.32E-13"}, {"measurement": "N-stearoyl phenylalanine level, Mean", "setting": "[1]", "result": "2.74E-13"}, {"measurement": "N-stearoyl serine level, Mean", "setting": "[1]", "result": "1.52E-11"}, {"measurement": "Oleic acid level, Mean", "setting": "[1]", "result": "6.36E-10"}, {"measurement": "PGE2 level, Mean", "setting": "[1]", "result": "2.14E-10"}, {"measurement": "PhosphoLEA level, Mean", "setting": "[1]", "result": "4.64E-12"}, {"measurement": "2-arachidonoyl glycerol: Direction (relative to Veh)", "setting": "adult, 3 mg/kg CP 55,940", "result": "↓"}, {"measurement": "2-arachidonoyl glycerol: Magnitude (x Veh level)", "setting": "adult, 3 mg/kg CP 55,940", "result": 0.81, "unit": "x Veh level"}, {"measurement": "2-linoleoyl glycerol: Direction (relative to Veh)", "setting": "adult, 3 mg/kg CP 55,940", "result": "↓"}, {"measurement": "2-linoleoyl glycerol: Magnitude (x Veh level)", "setting": "adult, 3 mg/kg CP 55,940", "result": 0.66, "unit": "x Veh level"}, {"measurement": "2-oleoyl glycerol: Direction (relative to Veh)", "setting": "adult, 3 mg/kg CP 55,940", "result": "↓"}, {"measurement": "2-oleoyl glycerol: Magnitude (x Veh level)", "setting": "adult, 3 mg/kg CP 55,940", "result": 0.74, "unit": "x Veh level"}, {"measurement": "6-ketoPGF1α: Direction (relative to Veh)", "setting": "adult, 3 mg/kg CP 55,940", "result": "↓"}, {"measurement": "6-ketoPGF1α: Magnitude (x Veh level)", "setting": "adult, 3 mg/kg CP 55,940", "result": 0.68, "unit": "x Veh level"}, {"measurement": "Arachidonic acid: Direction (relative to Veh)", "setting": "adult, 3 mg/kg CP 55,940", "result": "↓"}, {"measurement": "Arachidonic acid: Magnitude (x Veh level)", "setting": "adult, 3 mg/kg CP 55,940", "result": 0.67, "unit": "x Veh level"}, {"measurement": "Linoleic acid: Direction (relative to Veh)", "setting": "adult, 3 mg/kg CP 55,940", "result": "↓"}, {"measurement": "Linoleic acid: Magnitude (x Veh level)", "setting": "adult, 3 mg/kg CP 55,940", "result": 0.63, "unit": "x Veh level"}, {"measurement": "N-arachidonoyl GABA: Direction (relative to Veh)", "setting": "adult, 3 mg/kg CP 55,940", "result": "↓"}, {"measurement": "N-arachidonoyl GABA: Magnitude (x Veh level)", "setting": "adult, 3 mg/kg CP 55,940", "result": 0.65, "unit": "x Veh level"}, {"measurement": "N-arachidonoyl ethanolamine: Direction (relative to Veh)", "setting": "adult, 3 mg/kg CP 55,940", "result": "↓"}, {"measurement": "N-arachidonoyl ethanolamine: Magnitude (x Veh level)", "setting": "adult, 3 mg/kg CP 55,940", "result": 0.63, "unit": "x Veh level"}, {"measurement": "N-arachidonoyl phenylalanine: Direction (relative to Veh)", "setting": "adult, 3 mg/kg CP 55,940", "result": "↓"}, {"measurement": "N-arachidonoyl phenylalanine: Magnitude (x Veh level)", "setting": "adult, 3 mg/kg CP 55,940", "result": 0.41, "unit": "x Veh level"}, {"measurement": "N-arachidonoyl taurine: Direction (relative to Veh)", "setting": "adult, 3 mg/kg CP 55,940", "result": "↓"}, {"measurement": "N-arachidonoyl taurine: Magnitude (x Veh level)", "setting": "adult, 3 mg/kg CP 55,940", "result": 0.77, "unit": "x Veh level"}, {"measurement": "N-docosahexaenoyl GABA: Direction (relative to Veh)", "setting": "adult, 3 mg/kg CP 55,940", "result": "↓"}, {"measurement": "N-docosahexaenoyl GABA: Magnitude (x Veh level)", "setting": "adult, 3 mg/kg CP 55,940", "result": 0.83, "unit": "x Veh level"}, {"measurement": "N-docosahexaenoyl ethanolamine: Direction (relative to Veh)", "setting": "adult, 3 mg/kg CP 55,940", "result": "↓"}, {"measurement": "N-docosahexaenoyl ethanolamine: Magnitude (x Veh level)", "setting": "adult, 3 mg/kg CP 55,940", "result": 0.73, "unit": "x Veh level"}, {"measurement": "N-linoleoyl GABA: Direction (relative to Veh)", "setting": "adult, 3 mg/kg CP 55,940", "result": "↓"}, {"measurement": "N-linoleoyl GABA: Magnitude (x Veh level)", "setting": "adult, 3 mg/kg CP 55,940", "result": 0.83, "unit": "x Veh level"}, {"measurement": "N-linoleoyl ethanolamine: Direction (relative to Veh)", "setting": "adult, 3 mg/kg CP 55,940", "result": "↓"}, {"measurement": "N-linoleoyl ethanolamine: Magnitude (x Veh level)", "setting": "adult, 3 mg/kg CP 55,940", "result": 0.64, "unit": "x Veh level"}, {"measurement": "N-oleoyl serine: Direction (relative to Veh)", "setting": "adult, 3 mg/kg CP 55,940", "result": "↓"}, {"measurement": "N-oleoyl serine: Magnitude (x Veh level)", "setting": "adult, 3 mg/kg CP 55,940", "result": 0.72, "unit": "x Veh level"}, {"measurement": "N-oleoyl valine: Direction (relative to Veh)", "setting": "adult, 3 mg/kg CP 55,940", "result": "↑"}, {"measurement": "N-oleoyl valine: Magnitude (x Veh level)", "setting": "adult, 3 mg/kg CP 55,940", "result": 2.05, "unit": "x Veh level"}, {"measurement": "N-palmitoyl tyrosine: Direction (relative to Veh)", "setting": "adult, 3 mg/kg CP 55,940", "result": "↓"}, {"measurement": "N-palmitoyl tyrosine: Magnitude (x Veh level)", "setting": "adult, 3 mg/kg CP 55,940", "result": 0.74, "unit": "x Veh level"}, {"measurement": "Oleic acid: Direction (relative to Veh)", "setting": "adult, 3 mg/kg CP 55,940", "result": "↓"}, {"measurement": "Oleic acid: Magnitude (x Veh level)", "setting": "adult, 3 mg/kg CP 55,940", "result": 0.63, "unit": "x Veh level"}, {"measurement": "PGE2: Direction (relative to Veh)", "setting": "adult, 3 mg/kg CP 55,940", "result": "↓"}]}
